Structures are written as SMILES.

For this experiment, the target named is human LPAR1 (Homo sapiens (Human), UniProt Q92633). As to the kind of experiment: LPAR1 intracellular calcium mobilization assay (antagonist mode, FLIPR). In kind it is cell-based. As to conditions: CHO-K1 EDG2 cells expressing human LPAR1, LPA 18:2 at EC80 (100 nM), test compound 0.5 nM to 10 μM. On the technique in general: Calcium assays in cells follow changes in intracellular calcium, usually with a dye or a luminescent sensor.
Chain of human LPAR1 (Q92633 whole entry): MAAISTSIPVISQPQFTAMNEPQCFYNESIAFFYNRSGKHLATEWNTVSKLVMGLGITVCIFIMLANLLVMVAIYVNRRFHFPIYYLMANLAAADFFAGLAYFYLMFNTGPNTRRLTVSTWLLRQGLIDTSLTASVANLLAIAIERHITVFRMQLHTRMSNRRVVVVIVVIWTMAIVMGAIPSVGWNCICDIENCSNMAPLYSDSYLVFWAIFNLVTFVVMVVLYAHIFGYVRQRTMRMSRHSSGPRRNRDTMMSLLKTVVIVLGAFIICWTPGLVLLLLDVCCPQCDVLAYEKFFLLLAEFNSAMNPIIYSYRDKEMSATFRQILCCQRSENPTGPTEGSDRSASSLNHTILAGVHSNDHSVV
By EC50 is commonly meant the concentration that produces a half-maximal response. With `C[C@@H](OC(=O)Nc1c(-c2ccc(NC(=O)C3CN(CC(F)(F)F)C3)cn2)nnn1C)c1cccnc1Cl` [Compound 309, (R)-1-(2-chloropyridin-3-yl)ethyl (1-methyl-4-(5-(1-(2,2,2-trifluoroethyl)azetidine-3-carboxamido)pyridin-2-yl)-1H-1,2,3-triazol-5-yl)carbamate], the EC50 was 133 nM.

As for `C[C@@H](OC(=O)Nc1c(-c2ccc(NC(=O)C3(N)CC(F)(F)C3)cn2)nnn1C)c1cccnc1Cl` [Compound 310, (R)-1-(2-chloropyridin-3-yl)ethyl (4-(5-(1-amino-3,3-difluorocyclobutane-1-carboxamido)pyridin-2-yl)-1-methyl-1H-1,2,3-triazol-5-yl)carbamate], the EC50 amounted to 454 nM.

Regarding `C[C@@H](OC(=O)Nc1c(-c2ccc(NC(=O)C3CC(NC4CC4)C3)cn2)nnn1C)c1cccnc1Cl` (stereo partly shown) [Compound 311], the concentration giving a half-maximal response (EC50) was 1530 nM.

For `CC(=O)NC12CC(C(=O)Nc3ccc(-c4nnn(C)c4NC(=O)O[C@H](C)c4cccnc4Cl)nc3)(C1)C2` [Compound 312], the 50% effective concentration (EC50) turned out to be 1530 nM.

Regarding `Cc1nc(-c2nnn(C)c2NC(=O)O[C@H](C)c2cc(F)cnc2F)ccc1NC(=O)C1(C#N)CC1` [Compound 313, (R)-1-(2,5-difluoropyridin-3-yl)ethyl (4-(5-(1-cyanocyclopropane-1-carboxamido)-6-methylpyridin-2-yl)-1-methyl-1H-1,2,3-triazol-5-yl)carbamate], the EC50 is 51.8 nM.

For the molecule `Cc1nc(-c2nnn(C)c2NC(=O)O[C@H](C)c2cc(F)cnc2F)ccc1NC(=O)c1cnc(C(F)(F)F)nc1` [Compound 314, (R)-1-(2,5-difluoropyridin-3-yl)ethyl (1-methyl-4-(6-methyl-5-(2-(trifluoromethyl)pyrimidine-5-carboxamido)pyridin-2-yl)-1H-1,2,3-triazol-5-yl)carbamate], the 50% effective concentration (EC50) was determined as 2.9 nM.

As to `C[C@@H](OC(=O)Nc1c(-c2ccc(NC(=O)c3ccc(C(F)(F)F)nc3)c(F)n2)nnn1C)c1cccnc1Cl` [Compound 315, (R)-1-(2-chloropyridin-3-yl)ethyl (4-(6-fluoro-5-(6-(trifluoromethyl)nicotinamido)pyridin-2-yl)-1-methyl-1H-1,2,3-triazol-5-yl)carbamate], the 50% effective concentration (EC50) worked out at 12.7 nM.

Consider `C[C@@H](OC(=O)Nc1c(-c2ccc(NC(=O)C3(C#N)CC3)c(F)n2)nnn1C)c1cccnc1Cl` [Compound 316, (R)-1-(2-chloropyridin-3-yl)ethyl (4-(5-(1-cyanocyclopropane-1-carboxamido)-6-fluoropyridin-2-yl)-1-methyl-1H-1,2,3-triazol-5-yl)carbamate], for which the EC50 amounted to 41.6 nM.

Take `C[C@@H](OC(=O)Nc1c(-c2cc(F)c(NC(=O)c3ccc(C(F)(F)F)nc3)cn2)nnn1C)c1cccnc1Cl` [Compound 317, (R)-1-(2-chloropyridin-3-yl)ethyl (4-(4-fluoro-5-(6-(trifluoromethyl)nicotinamido)pyridin-2-yl)-1-methyl-1H-1,2,3-triazol-5-yl)carbamate]: the concentration giving a half-maximal response (EC50) stood at 90.5 nM.

On to `C[C@@H](OC(=O)Nc1c(-c2ccc(NC(=O)c3cnc(C(F)(F)F)nc3)c(F)n2)nnn1C)c1cccnc1Cl` [Compound 318, (R)-1-(2-chloropyridin-3-yl)ethyl (4-(6-fluoro-5-(2-(trifluoromethyl)pyrimidine-5-carboxamido)pyridin-2-yl)-1-methyl-1H-1,2,3-triazol-5-yl)carbamate], for which the EC50 was 9.5 nM.

As to `C[C@@H](OC(=O)Nc1c(-c2ncc(NC(=O)c3ccc(Cl)nc3)cn2)nnn1C)c1cc(F)cnc1F` [Compound 319, (R)-1-(2,5-difluoropyridin-3-yl)ethyl (4-(5-(6-chloronicotinamido)pyrimidin-2-yl)-1-methyl-1H-1,2,3-triazol-5-yl)carbamate], the EC50 was 1500 nM.

Consider `C[C@@H](OC(=O)Nc1c(-c2cnc(NC(=O)c3ccc(Cl)nc3)cn2)nnn1C)c1cc(F)cnc1F` [Compound 320, (R)-1-(2,5-difluoropyridin-3-yl)ethyl (4-(5-(6-chloronicotinamido)pyrazin-2-yl)-1-methyl-1H-1,2,3-triazol-5-yl)carbamate], for which the EC50 is 131 nM.

Take `C[C@@H](OC(=O)Nc1c(-c2cnc(NC(=O)c3ccc(C(F)F)nc3)cn2)nnn1C)c1cc(F)cnc1F` [Compound 321, (R)-1-(2,5-difluoropyridin-3-yl)ethyl (4-(5-(6-(difluoromethyl)nicotinamido)pyrazin-2-yl)-1-methyl-1H-1,2,3-triazol-5-yl)carbamate]: the 50% effective concentration (EC50) amounted to 309 nM.

As to `C[C@@H](OC(=O)Nc1c(-c2cnc(NC(=O)c3ccc(C(F)(F)F)nc3)cn2)nnn1C)c1cc(F)cnc1F` [Compound 322, (R)-1-(2,5-difluoropyridin-3-yl)ethyl (1-methyl-4-(5-(6-(trifluoromethyl)nicotinamido)pyrazin-2-yl)-1H-1,2,3-triazol-5-yl)carbamate], the 50% effective concentration (EC50) worked out at 170 nM.

`C[C@@H](OC(=O)Nc1c(-c2cnc(NC(=O)c3ccnc(F)c3F)cn2)nnn1C)c1cc(F)cnc1F` [Compound 323, (R)-1-(2,5-difluoropyridin-3-yl)ethyl (4-(5-(2,3-difluoroisonicotinamido)pyrazin-2-yl)-1-methyl-1H-1,2,3-triazol-5-yl)carbamate]: the concentration for a half-maximal effect (EC50) turned out to be 178 nM.

Turning to `C[C@@H](OC(=O)Nc1c(-c2cnc(NC(=O)c3cnc(C(F)F)nc3)cn2)nnn1C)c1cccnc1Cl` [Compound 324, (R)-1-(2-chloropyridin-3-yl)ethyl (4-(5-(2-(difluoromethyl)pyrimidine-5-carboxamido)pyrazin-2-yl)-1-methyl-1H-1,2,3-triazol-5-yl)carbamate], the half-maximal effective concentration (EC50) was found to be 53.7 nM.

Take `C[C@@H](OC(=O)Nc1c(-c2cnc(NC(=O)c3cnc(C(F)(F)F)nc3)cn2)nnn1C)c1cccnc1F` [Compound 325, (R)-1-(2-fluoropyridin-3-yl)ethyl (1-methyl-4-(5-(2-(trifluoromethyl)pyrimidine-5-carboxamido)pyrazin-2-yl)-1H-1,2,3-triazol-5-yl)carbamate]: the concentration giving a half-maximal response (EC50) was found to be 185 nM.

In the case of `C[C@@H](OC(=O)Nc1c(-c2cnc(NC(=O)c3ccc(C(F)(F)F)nc3)cn2)nnn1C)c1cccnc1F` [Compound 326, (R)-1-(2-fluoropyridin-3-yl)ethyl (1-methyl-4-(5-(6-(trifluoromethyl)nicotinamido)pyrazin-2-yl)-1H-1,2,3-triazol-5-yl)carbamate], the EC50 came out at 305 nM.

On to `C[C@@H](OC(=O)Nc1c(-c2cnc(NC(=O)c3cnc(C(F)F)nc3)cn2)nnn1C)c1cccnc1F` [Compound 327, (R)-1-(2-fluoropyridin-3-yl)ethyl (4-(5-(2-(difluoromethyl)pyrimidine-5-carboxamido)pyrazin-2-yl)-1-methyl-1H-1,2,3-triazol-5-yl)carbamate], for which the concentration for a half-maximal effect (EC50) stood at 255 nM.

Take `C[C@@H](OC(=O)Nc1c(-c2cnc(NC(=O)C3(C#N)CC3)cn2)nnn1C)c1cc(F)cnc1F` [Compound 328, (R)-1-(2,5-difluoropyridin-3-yl)ethyl (4-(5-(1-cyanocyclopropane-1-carboxamido)pyrazin-2-yl)-1-methyl-1H-1,2,3-triazol-5-yl)carbamate]: the concentration for a half-maximal effect (EC50) amounted to 1130 nM.

Take `C[C@@H](OC(=O)Nc1c(-c2ncc(NC(=O)C3(C#N)CC3)cn2)nnn1C)c1cc(F)cnc1Cl` [Compound 329, (R)-1-(2-chloro-5-fluoropyridin-3-yl)ethyl (4-(5-(1-cyanocyclopropane-1-carboxamido)pyrimidin-2-yl)-1-methyl-1H-1,2,3-triazol-5-yl)carbamate]: the 50% effective concentration (EC50) was 749 nM.

Turning to `C[C@@H](OC(=O)Nc1c(-c2ncc(NC(=O)C34CC(F)(C3)C4)cn2)nnn1C)c1cc(F)cnc1Cl` [Compound 330, (R)-1-(2-chloro-5-fluoropyridin-3-yl)ethyl (4-(5-(3-fluorobicyclo[1.1.1]pentane-1-carboxamido)pyrimidin-2-yl)-1-methyl-1H-1,2,3-triazol-5-yl)carbamate], the EC50 is 600 nM.

Take `C[C@@H](OC(=O)Nc1c(-c2ncc(NC(=O)[C@@H]3C[C@H]3C(F)(F)F)cn2)nnn1C)c1cc(F)cnc1Cl` [Compound 331, (R)-1-(2-chloro-5-fluoropyridin-3-yl)ethyl (1-methyl-4-(5-((1R,2R)-2-(trifluoromethyl)cyclopropane-1-carboxamido)pyrimidin-2-yl)-1H-1,2,3-triazol-5-yl)carbamate]: the concentration giving a half-maximal response (EC50) worked out at 22.8 nM.

In the case of `C[C@@H](OC(=O)Nc1c(-c2ncc(NC(=O)c3ccc(C(F)(F)F)nc3)cn2)nnn1C)c1cc(F)cnc1Cl` [Compound 332, (R)-1-(2-chloro-5-fluoropyridin-3-yl)ethyl (1-methyl-4-(5-(6-(trifluoromethyl)nicotinamido)pyrimidin-2-yl)-1H-1,2,3-triazol-5-yl)carbamate], the concentration for a half-maximal effect (EC50) was determined as 354 nM.

In the case of `C[C@@H](OC(=O)Nc1c(-c2cnc(NC(=O)C34CC(F)(C3)C4)cn2)nnn1C)c1cc(F)cnc1Cl` [Compound 333, (R)-1-(2-chloro-5-fluoropyridin-3-yl)ethyl (4-(5-(3-fluorobicyclo[1.1.1]pentane-1-carboxamido)pyrazin-2-yl)-1-methyl-1H-1,2,3-triazol-5-yl)carbamate], the EC50 stood at 219 nM.

For the molecule `CO[C@]1(C#N)C[C@@H](C(=O)Nc2cnc(-c3nnn(C)c3NC(=O)O[C@H](C)c3cc(F)cnc3F)nc2)C1` [Compound 334, (R)-1-(2,5-difluoropyridin-3-yl)ethyl (4-(5-((1r,3R)-3-cyano-3-methoxycyclobutane-1-carboxamido)pyrimidin-2-yl)-1-methyl-1H-1,2,3-triazol-5-yl)carbamate], the EC50 amounted to 3420 nM.

With `CO[C@]1(C#N)C[C@H](C(=O)Nc2cnc(-c3nnn(C)c3NC(=O)O[C@H](C)c3cc(F)cnc3F)nc2)C1` [Compound 335, (R)-1-(2,5-difluoropyridin-3-yl)ethyl (4-(5-((1s,3S)-3-cyano-3-methoxycyclobutane-1-carboxamido)pyrimidin-2-yl)-1-methyl-1H-1,2,3-triazol-5-yl)carbamate], the EC50 was determined as 778 nM.

With `C[C@@H](OC(=O)Nc1c(-c2ncc(NC(=O)C3(C#N)CC3)cc2F)nnn1C)c1cc(F)cnc1F` [Compound 336, (R)-1-(2,5-difluoropyridin-3-yl)ethyl (4-(5-(1-cyanocyclopropane-1-carboxamido)-3-fluoropyridin-2-yl)-1-methyl-1H-1,2,3-triazol-5-yl)carbamate], the EC50 came out at 258 nM.
